Assay results taken from patent US5151497A, “Histidyl peptide derivatives” (Japan Tobacco Inc., priority 1990, dated 1992).
Read-outs that look alike come from different tables or passages of the source.

How the values were obtained:
Format in all cases: in vivo
[1] = tested on: Wistar male rats; test: Flexor reflex in spinalized rats; conditions: intravenous; for response vs control in vivo at 0.1 mg/kg / response vs control in vivo at 0.3 mg/kg: Rattus norvegicus; for response vs control in vivo at 0.1 mg/kg / response vs control in vivo at 0.3 mg/kg / Reflex amplitude (%) 10 min. after / Reflex amplitude (%) 60 min. after: pre-dose mean = 100%; for Area below the reflex amplitude linking line: covering 60 minutes
Protocol: Wistar male rats (weighing 450-520 g) were anesthetized with ether, and the cervical part of […] was exposed, into which a tracheal cannula was inserted. The vagus nerves were severed bilaterally at the cervical region. Thereafter, the cervical vertebra C1 segment was transected, and rapidly, artificial ventilation was given with the use of an artificial respirator (Shinano Factory 60 rpm. 4 ml/stroke). The rat was placed on a thermostated apparatus in which water thermostated at 37° C. was circulated and fixed thereto at forelimbs, right hindlimb, tooth and tail. A venous cannula was inserted into the femoral vein in the right hindlimb and two needle electrodes were subcutaneously inserted into the left skin of the toe, and a piece of thread was attached to the limb with the edge of the thread bonded to a force-displacement transducer. Tension of about 5 g was applied to the thread. Through the electrodes, electric stimuli of 50-100 V were applied once per 30 seconds. The flexor reflex was recorded on the polygraph via a force-displacement transducer. After the reaction became constant in about one-hours' lapse for stabilization, the test compound dissolved in saline was intravenously administered. Thereafter, the reaction was recorded for 1 hour. In the data, taking the mean of the three reactions just before administration of the test compound for 100%, the reflex amplitude at 1-, 3-, 5-, 8-, 10-, 15-, 20-, 30-, 40-, 50- and 60-minutes' lapse after administration of the test compound were calculated. In Table 3, there are shown calculated area below the straight line linking the obtained reflex amplitude at the respective above-mentioned time covering 60 […], and the reflex amplitude at 10- and 60-minutes' lapse after administration (Table 3).

[2] = tested on: ICR male mice; test: Anti-chlorpromazine action (locomotor stimulant action); conditions: SC, mice given chlorpromazine.HCl 5 mg/kg s.c. one hour before, from regression line; for ED (3000 locomotor counts): Mus musculus, 2 h, read-out: Concentration of test compound necessary for inducing 3000 count of automatism quantity in 2 hours
Protocol: ICR male mice weighing 35-40 g (four animals per group) were subcutaneously administered with chlorpromazine.HCl at the dose of 5 mg/kg and immediately set in the automatic locomotor-measuring apparatus (AUTOMEX). One hour later, the test compound dissolved in saline was subcutaneously administered, and the locomotor activity was measured every 15 minutes for 120 minutes. The total locomotor activity during the period of 120 minutes was calculated and the regression line was estimated based on the method of least squares, from which the amount of the test compound necessary for inducing 3000 locomotor-count was estimated (Table 2).

[3] = tested on: ICR male mice; test: Anti-reserpine action (antagonistic action against hypothermia); conditions: SC, mice given reserpine 5 mg/kg s.c. 3 or 3.5 hours before, from regression line; for ED (1 degC rise in body temperature): Mus musculus, 2 h, read-out: Concentration of test compound necessary for raising body temperature by 1° C. on the average for 120 minutes
Protocol: ICR male mice weighing 35-40 g were subcutaneously administered with reserpine at the dose of 5 mg/kg. About 2 hours later, each of the mice was held by a mouse-holder, and a body temperature sensor was intrarectally inserted. Thereafter, the body temperature was automatically measured every 10 minutes. The test compound dissolved in saline was subcutaneously administered 3 or 3.5 hours after administration of reserpine. After the administration of the test compound, the body temperature was measured every 10 minutes over the period of 120 minutes. The area below the body temperature line during the period was calculated, from which the regression line was estimated based upon least square method, and estimated was the amount of the test compound necessary for raising the body temperature by 1° C. on the average for 120 minutes from that just before the administration of the test compound (Table 1).

[4] = 1 h, 0.1 mg/kg, read-out: Reflex amplitude (%) 60 min. after
[5] = 1 h, 0.3 mg/kg (footnote *), read-out: Reflex amplitude (%) 60 min. after
[6] = 10 min, 0.1 mg/kg, read-out: Reflex amplitude (%) 10 min. after
[7] = 10 min, 0.3 mg/kg (footnote *), read-out: Reflex amplitude (%) 10 min. after

C[C@H]1CC(=O)C[C@H]1C(=O)N[C@@H](Cc1c[nH]cn1)C(=O)N1CCC[C@H]1C(N)=O (mixture of isomers) [Compound 19, N^α -(cis-2-Methyl-4-oxocyclopentanecarbonyl)-L-histidyl-L-prolinamide]
response vs control in vivo at 0.1 mg/kg [1, 4]: 246% | response vs control in vivo at 0.3 mg/kg [1, 5]: 340%

C[C@@H]1CC(=O)C[C@H]1C(=O)N[C@@H](Cc1c[nH]cn1)C(=O)N1CCC[C@H]1C(N)=O (mixture of isomers) [Compound 20, N^α -(trans-2-Methyl-4-oxocyclopentanecarbonyl)-L-histidyl-L-prolinamide]
response vs control in vivo at 0.1 mg/kg [1, 4]: 107% | response vs control in vivo at 0.3 mg/kg [1, 5]: 223%

C[C@@H]1CC(=O)N[C@@H]1C(=O)N[C@@H](Cc1cnc[nH]1)C(=O)N1CSC[C@H]1C(N)=O (relative stereo) [Compound 3, 3-[N^α -(cis-3-Methylpyroglutamyl)-L-histidyl]-L-thiazolidine-4-carboxamide]
Concentration of test compound necessary for inducing 3000 count of automatism quantity in 2 hours [2]: 0.47 mg/kg | Concentration of test compound necessary for raising body temperature by 1° C. on the average for 120 minutes [3]: 0.20 mg/kg | Area below the reflex amplitude linking line ([1]; 0.1 mg/kg): 13811 | Reflex amplitude (%) 10 min. after ([1]; 0.1 mg/kg): 190.5% | Reflex amplitude (%) 60 min. after ([1]; 0.1 mg/kg): 277.6%

C[C@H]1CC(=O)N[C@@H]1C(=O)N[C@@H](Cc1c[nH]cn1)C(=O)N1CSC[C@H]1C(N)=O (relative stereo) [Compound 4, 3-[N^α -(trans-3-Methylpyroglutamyl)-L-histidyl]-L-thiazolidine-4-carboxamide]
Concentration of test compound necessary for inducing 3000 count of automatism quantity in 2 hours [2]: 0.63 mg/kg | Concentration of test compound necessary for raising body temperature by 1° C. on the average for 120 minutes [3]: 0.34 mg/kg | Area below the reflex amplitude linking line ([1]; 0.1 mg/kg): 9404 | Reflex amplitude (%) 10 min. after ([1]; 0.1 mg/kg): 142.8% | Reflex amplitude (%) 60 min. after ([1]; 0.1 mg/kg): 163.9%

C[C@@H]1CC(=O)N[C@@H]1C(=O)N[C@@H](Cc1c[nH]cn1)C(=O)N1CCC[C@H]1C(N)=O [Compound 1, N^α -(cis-3-Methylpyroglutamyl)-L-histidyl-L-prolinamide]
response vs control in vivo at 0.1 mg/kg [1, 4]: 298%

C[C@H]1CC(=O)N[C@@H]1C(=O)N[C@@H](Cc1c[nH]cn1)C(=O)N1CCC[C@H]1C(N)=O [Compound 2, N^α -(trans-3-Methylpyroglutamyl)-L-histidyl-L-prolinamide]
response vs control in vivo at 0.1 mg/kg [1, 4]: 107%

C[C@@H]1CC(=O)O[C@@H]1C(=O)N[C@@H](Cc1c[nH]cn1)C(=O)N1CCC[C@H]1C(N)=O [Compound 5, N^α -[(2S,3R)-Tetrahydro-3-methyl-5-oxo-2-furancarbonyl]-L-histidyl-L-prolinamide]
response vs control in vivo at 0.1 mg/kg [1, 4]: 168%

NC(=O)[C@@H]1CCCN1C(=O)[C@H](Cc1c[nH]cn1)NC(=O)[C@H]1NC(=O)C[C@H]1c1ccccc1 [Compound 11, N^α -(cis-3-Phenylpyroglutamyl)-L-histidyl-L-prolinamide]
ED (3000 locomotor counts) [2]: 1.89 mg/kg | ED (1 degC rise in body temperature) [3]: 0.28 mg/kg | response vs control in vivo at 0.1 mg/kg [1, 6]: 140% | response vs control in vivo at 0.1 mg/kg [1, 4]: 241% | Area below the reflex amplitude linking line ([1]; 0.1 mg/kg): 11321

NC(=O)[C@@H]1CCCN1C(=O)[C@H](Cc1c[nH]cn1)NC(=O)C1CCC(=O)C1 (stereo partly drawn) [Compound 13, N^α -(3-Oxocyclopentanecarbonyl)-L-histidyl-L-prolinamide]
response vs control in vivo at 0.1 mg/kg [1, 4]: 167%

NC(=O)[C@@H]1CCCN1C(=O)[C@H](Cc1c[nH]cn1)NC(=O)[C@@H]1CCC(=O)C1 [Compound 16, N^α -[(1R)-3-Oxocyclopentanecarbonyl]-L-histidyl-L-prolinamide]
response vs control in vivo at 0.1 mg/kg [1, 4]: 252%

CC1(C)CC(=O)CC1C(=O)N[C@@H](Cc1c[nH]cn1)C(=O)N1CCC[C@H]1C(N)=O (stereo partly drawn) [Compound 21, N^α -(2,2-Dimethyl-4-oxocyclopentanecarbonyl)-L-histidyl-L-prolinamide]
response vs control in vivo at 0.1 mg/kg [1, 4]: 145% | response vs control in vivo at 0.3 mg/kg [1, 5]: 274%

CC(C)C[C@H](NC(=O)[C@H]1NC(=O)C[C@H]1C)C(=O)N1CCC[C@H]1C(N)=O [Compound 27A, N-(cis-3-Methylpyroglutamyl)-L-leucyl-L-prolinamide]
response vs control in vivo at 0.1 mg/kg [1, 6]: 126% | response vs control in vivo at 0.1 mg/kg [1, 4]: 156% | Area below the reflex amplitude linking line ([1]; 0.1 mg/kg): 8769

CSCC[C@H](NC(=O)[C@H]1NC(=O)C[C@H]1C)C(=O)N1CCC[C@H]1C(N)=O [Compound 28A, N-(cis-3-Methylpyroglutamyl)-L-methionyl-L-prolinamide]
response vs control in vivo at 0.1 mg/kg [1, 6]: 125% | response vs control in vivo at 0.1 mg/kg [1, 4]: 195% | Area below the reflex amplitude linking line ([1]; 0.1 mg/kg): 9188

CCC[C@H](NC(=O)[C@H]1NC(=O)C[C@H]1C)C(=O)N1CCC[C@H]1C(N)=O [Compound 29A, N-(cis-3-Methylpyroglutamyl)-L-norvalyl-L-prolinamide]
response vs control in vivo at 0.3 mg/kg [1, 7]: 124% | response vs control in vivo at 0.3 mg/kg [1, 5]: 121% | Area below the reflex amplitude linking line ([1]; 0.3 mg/kg (footnote *)): 7063

CCCC[C@H](NC(=O)[C@H]1NC(=O)C[C@H]1C)C(=O)N1CCC[C@H]1C(N)=O [Compound 31A, N-(cis-3-Methylpyroglutamyl)-L-norleucyl-L-prolinamide]
response vs control in vivo at 0.1 mg/kg [1, 6]: 130% | response vs control in vivo at 0.1 mg/kg [1, 4]: 129% | Area below the reflex amplitude linking line ([1]; 0.1 mg/kg): 8126

CCC[C@H](NC(=O)[C@H]1NC(=O)CC1(C)C)C(=O)N1CCC[C@H]1C(N)=O [Compound 33A, N-(3,3-Dimethylpyroglutamyl)-L-norvalyl-L-prolinamide]
response vs control in vivo at 0.3 mg/kg [1, 7]: 119% | response vs control in vivo at 0.3 mg/kg [1, 5]: 120% | Area below the reflex amplitude linking line ([1]; 0.3 mg/kg (footnote *)): 7172

NC(=O)[C@@H]1CCCN1C(=O)[C@H](Cc1ccccc1)NC(=O)[C@@H]1CCC(=O)C1 [Compound 37, N-[(1R)-3-oxocyclopentanecarbonyl]-L-phenylalanyl-L-prolinamide]
Area below the reflex amplitude linking line ([1]; 0.3 mg/kg (footnote *)): 5868

NC(=O)C1CCCN1C(=O)C(Cc1cnc[nH]1)NC(=O)C1CCC(=O)O1 (stereo not shown) [DN1417, reference compound]
Concentration of test compound necessary for inducing 3000 count of automatism quantity in 2 hours [2]: 4.34 mg/kg | Concentration of test compound necessary for raising body temperature by 1° C. on the average for 120 minutes [3]: 2.06 mg/kg | Area below the reflex amplitude linking line ([1]; 0.3 mg/kg (footnote *)): 8152 | Reflex amplitude (%) 10 min. after ([1]; 0.3 mg/kg (footnote *)): 113.7% | Reflex amplitude (%) 60 min. after ([1]; 0.3 mg/kg (footnote *)): 162.8%

NC(=O)[C@@H]1CCCN1C(=O)[C@H](Cc1c[nH]cn1)NC(=O)[C@@H]1CCC(=O)N1 [TRH, L-pyroglutamyl-L-histidyl-L-prolinamide, reference compound]
ED (3000 locomotor counts) [2]: 6.82 mg/kg | ED (1 degC rise in body temperature) [3]: 2.52 mg/kg | response vs control in vivo at 0.1 mg/kg [1, 6]: 118% | response vs control in vivo at 0.1 mg/kg [1, 4]: 79.3% | Area below the reflex amplitude linking line ([1]; 0.1 mg/kg): 6418
